Data on 21 compounds can be found in patent US20240300980A1, “HETEROCYCLIC COMPOUNDS AS KRAS INHIBITOR, AND PREPARATION THEREFOR AND USE THEREOF IN TREATMENT” (SHANGHAI KECHOW PHARMA, INC., priority 2021, published 2024).

Some results are limits rather than exact numbers.

The test system of the first assay is AGS cells (KRAS^G12D). Put plainly: Detection of cell proliferation in vitro by MTT/MTS method (cell activity experiment). The class given is cell-based. The following applies: AGS cells; MTT/MTS; 3 days of drug treatment; read-out: AGS IC50. In outline: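 KRAS G12D AGS cells seeded at 1000 per well, compound added 24 h later, 0.5% final DMSO. Viability read after 3 days of treatment by MTT (solubilised in DMSO) or MTS, 4 h, absorbance 490 nm. IC50 from dose–response curves versus DMSO control.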
Turning to `Oc1cc(-c2ccc3c(N4C[C@H]5CC[C@@H](C4)[C@@H]5F)nc(OC[C@@]45CCCN4C[C@H](F)C5)nc3c2F)c2c(F)c(F)ccc2c1` [Example 126, 5,6-difluoro-4-(8-fluoro-4-((1R,5S,8R)-8-fluoro-3-azabicyclo [3.2.1]octan-3-yl)-2-(((2R,7aS)-2-fluorotetrahydro-1H-pyrrolizin-7a(5H)-yl)methoxy)quinazolin-7-yl)naphthalen-2-ol], the IC50 was > 2500 nM.

Turning to `CCc1c(F)ccc2cc(O)cc(-c3ccc4c(N5C[C@H]6CC[C@@H](C5)[C@@H]6F)nc(OC[C@@]56CCCN5C[C@H](F)C6)nc4c3F)c12` [Example 124, 5-ethyl-6-fluoro-4-(8-fluoro-4-((1R,5S, 8R)-8-fluoro-3-azabicyclo[3.2.1]octan-3-yl)-2-(((2R,7aS)-2-fluorotetrahydro-1H-pyrrolizin-7a(5H)-yl)methoxy)quinazolin-7-yl)naphthalen-2-ol], the IC50 is > 2500 nM.

The same assay, now with this note: Homo sapiens, AGS, 72 h, AGS cells; MTT/MTS; 3 days of drug treatment; read-out: AGS IC50.
Consider `Oc1cc2c(c(-c3ncc4c(N5C[C@H]6CC[C@@H](C5)N6)nc(OC[C@@]56CCCN5C[C@H](F)C6)nc4c3F)c1)CC1(CC1)C2` [Example 300, 4′-(4-((1R,5S)-3,8-diazabicyclo[3.2.1]octan-3-yl)-8-fluoro-2-(((2R,7aS)-2-fluorotetrahydro-1H-pyrrolizin-7a(5H)-yl)methoxy)pyrido[4,3-d]pyrimidin-7-yl)-1′,3′-dihydrospiro[cyclopropane-1,2′-inden]-6′-ol], for which the IC50 was 177 nM.

In the case of `CCC1CCc2cc(O)cc(-c3cc4nc(OC[C@@]56CCCN5C[C@H](F)C6)nc(N5C[C@H]6CC[C@@H](C5)N6)c4c4occc34)c21` (stereo partly drawn) [Example 386, 7-(9-((1R,5S)-3,8-diazabicyclo[3.2.1]octan-3-yl)-7-(((2R,7aS)-2-fluorotetrahydro-1H-pyrrolizin-7a(5H)-yl)methoxy)furo[2,3-f]quinazolin-4-yl)-1-ethyl-2,3-dihydro-1H-inden-5-ol], the IC50 came to 508 nM.

`CCC1COc2cc(O)cc(-c3ncc4c(N5C[C@H]6CC[C@@H](C5)N6)nc(OC[C@@]56CCCN5C[C@H](F)C6)nc4c3F)c21` (stereo partly drawn) [Example 243, 4-(4-((1R,5S)-3,8-diazabicyclo[3.2.1]octan-3-yl)-8-fluoro-2-(((2R,7aS)-2-fluorotetrahydro-1H-pyrrolizin-7a(5H)-yl)methoxy)pyrido[4,3-d]pyrimidin-7-yl)-3-ethyl-2,3-dihydrobenzofuran-6-ol]: the half-maximal inhibitory concentration (IC50) turned out to be 18 nM.

For the compound `CCc1c(F)ccc2cc(O)cc(-c3ccc4c(N5C[C@H]6CC[C@@H](C5)S6)nc(OC[C@@]56CCCN5C[C@H](F)C6)nc4c3F)c12` [Example 161, 4-(4-((1R,5S)-8-thia-3-azabicyclo[3.2.1]octan-3-yl)-8-fluoro-2-(((2R,7aS)-2-fluorotetrahydro-1H-pyrrolizin-7a(5H)-yl)methoxy)quinazolin-7-yl)-5-ethyl-6-fluoronaphthalen-2-ol], the IC50 came to 236 nM.

For `Cc1nccc2cc(O)cc(-c3ncc4c(N5C[C@H]6CC[C@@H](C5)N6)nc(OC[C@@]56CCCN5C[C@H](F)C6)nc4c3F)c12` [Example 343, 8-(4-((1R,5S)-3,8-diazabicyclo[3.2.1]octan-3-yl)-8-fluoro-2-(((2R,7aS)-2-fluorotetrahydro-1H-pyrrolizin-7a(5H)-yl)methoxy)pyrido[4,3-d]pyrimidin-7-yl)-1-methylisoquinolin-6-ol], the IC50 came to 17 nM.

Regarding `C#Cc1cccc2cc(O)cc(-c3ccc4c(N5C[C@H]6CC[C@@H](C5)N6)nc(OC[C@@]56CCCN5C[C@H](F)C6)nc4c3F)c12` [Example 89, 4-(4-((1R,5S)-3,8-diazabicyclo[3.2.1]octan-3-yl)-8-fluoro-2-(((2R,7aS)-2-fluorotetrahydro-1H-pyrrolizin-7a(5H)-yl)methoxy)quinazolin-7-yl)-5-ethynylnaphthalen-2-ol], the IC50 came out at 1.5 nM.

`Oc1ccc2c(C#Cc3ccc4c(N5C[C@H]6CC[C@@H](C5)N6)nc(OC[C@@]56CCCN5C[C@H](F)C6)nc4c3F)c(F)ccc2c1` [Example 367, 5-((4-((1R,5S)-3,8-diazabicyclo[3.2.1]octan-3-yl)-8-fluoro-2-(((2R,7aS)-2-fluorotetrahydro-1H-pyrrolizin-7a(5H)-yl)methoxy)quinazolin-7-yl)ethynyl)-6-fluoronaphthalen-2-ol]: the IC50 was 194 nM.

With `C#Cc1c(F)ccc2cc(O)cc(-c3ncc4c(N5C[C@H]6CC[C@@H](C5)N6)nc(OC[C@@]56CCCN5C[C@H](F)C6)nc4c3OC3CC3)c12` [Example 334, 4-(4-((1R,5S)-3,8-diazabicyclo[3.2.1]octan-3-yl)-8-cyclopropoxy-2-(((2R,7aS)-2-fluorotetrahydro-1H-pyrrolizin-7a(5H)-yl)methoxy)pyrido[4,3-d]pyrimidin-7-yl)-5-ethynyl-6-fluoronaphthalen-2-ol], the IC50 was 125 nM.

Take `C#Cc1c(F)ccc2cc(O)cc(-c3ncc4c(N5CC6CCC5CN6)nc(OC[C@@]56CCCN5C[C@H](F)C6)nc4c3F)c12` (stereo partly drawn) [Example 46, 4-(4-(2,5-diazabicyclo [2.2.2]octan-2-yl)-8-fluoro-2-(((2R,7aS)-2-fluorotetrahydro-1H-pyrrolizin-7a(5H)-yl)methoxy)pyrido[4,3-d]pyrimidin-7-yl)-5-ethynyl-6-fluoronaphthalen-2-ol]: the IC50 was 13 nM.

Take `C#Cc1c(F)ccc2cc(O)cc(-c3ccc4c(N5CC(C)(N)C5)nc(OC[C@@]56CCCN5C[C@H](F)C6)nc4c3F)c12` [Example 217, 4-(4-(3-amino-3-methylazetidin-1-yl)-8-fluoro-2-(((2R,7aS)-2-fluorotetrahydro-1H-pyrrolizin-7a(5H)-yl)methoxy)quinazolin-7-yl)-5-ethynyl-6-fluoronaphthalen-2-ol]: the IC50 was 835 nM.

Take `C#Cc1c(F)ccc2cc(O)cc(-c3ncc4c(N5C[C@H]6CC[C@@H](C5)O6)nc(OC[C@@]56CCCN5C[C@H](F)C6)nc4c3F)c12` [Example 12, 4-(4-((1R,5S)-8-oxa-3-azabicyclo[3.2.1]octan-3-yl)-8-fluoro-2-(((2R,7aS)-2-fluorotetrahydro-1H-pyrrolizin-7a(5H)-yl)methoxy)pyrido[4,3-d]pyrimidin-7-yl)-5-ethynyl-6-fluoronaphthalen-2-ol]: the IC50 is 316 nM.

Regarding `N#Cc1c(OC[C@@]23CCCN2C[C@H](F)C3)nc2c(F)c(-c3cc(O)cc4ccc(F)c(F)c34)ncc2c1N1C[C@H]2CC[C@@H](C1)N2` [Example 193, 4-((1R,5S)-3,8-diazabicyclo[3.2.1]octan-3-yl)-7-(7,8-difluoro-3-hydroxynaphthalen-1-yl)-8-fluoro-2-(((2R,7aS)-2-fluorotetrahydro-1H-pyrrolizin-7a(5H)-yl)methoxy)-1,6-naphthyridine-3-carbonitrile], the IC50 was 125 nM.

As to `C#Cc1c(F)ccc2cc(O)cc(-c3ncc4c(N5C[C@H]6CC[C@@H](C5)S6(=O)=O)nc(OC[C@@]56CCCN5C[C@H](F)C6)nc4c3F)c12` [Example 23, (1R,5S)-3-(7-(8-ethynyl-7-fluoro-3-hydroxynaphthalen-1-yl)-8-fluoro-2-(((2R, 7aS)-2-fluorotetrahydro-1H-pyrrolizin-7a(5H)-yl)methoxy)pyrido[4,3-d]pyrimidin-4-yl)-8-thia-3-azabicyclo[3.2.1] octane 8,8-dioxide], the IC50 was 6950 nM.

Turning to `CCC1CCc2cc(O)cc(-c3ccc4c(NCC5(N(C)C)CCC5)nc(OC[C@@]56CCCN5C[C@H](F)C6)nc4c3F)c21` (stereo partly drawn) [Example 429, 7-(4-(((1-(dimethylamino)cyclobutyl)methyl)amino)-8-fluoro-2-(((2R,7aS)-2-fluorotetrahydro-1H-pyrrolizin-7a(5H)-yl)methoxy)quinazolin-7-yl)-1-ethyl-2,3-dihydro-1H-inden-5-ol], the IC50 came to 75 nM.

As to `Cc1cc(N)nc(-c2ncc3c(N4C[C@H]5CC[C@@H](C4)N5)nc(OCC4(CN5CCCC5)CC4)nc3c2F)c1C(F)(F)F` [Example 8, 6-(4-((1R,5S)-3,8-diazabicyclo[3.2.1]octan-3-yl)-8-fluoro-2-((1-(pyrrolidin-1-ylmethyl)cyclopropyl)methoxy)pyrido[4,3-d]pyrimidin-7-yl)-4-methyl-5-(trifluoromethyl) pyridin-2-amine], the IC50 was > 1000 nM.

For `Oc1cc(-c2ncc3c(N4C[C@H]5CC[C@@H](C4)S5)nc(OC[C@@]45CCCN4C[C@H](F)C5)nc3c2F)c2c(F)cccc2c1` [Example 26, 4-(4-((1R,5S)-8-thia-3-azabicyclo[3.2.1]octan-3-yl)-8-fluoro-2-(((2R, 7aS)-2-fluorotetrahydro-1H-pyrrolizin-7a(5H)-yl)methoxy)pyrido[4,3-d]pyrimidin-7-yl)-5-fluoronaphthalen-2-ol], the IC50 worked out at 300 nM.

Consider `COC1CCCc2cc(O)cc(-c3ncc4c(N5C[C@H]6CC[C@@H](C5)N6)nc(OC[C@@]56CCCN5C[C@H](F)C6)nc4c3F)c21` (stereo partly drawn) [Example 270, 4-(4-((1R,5S)-3,8-diazabicyclo[3.2.1]octan-3-yl)-8-fluoro-2-(((2R,7aS)-2-fluorotetrahydro-1H-pyrrolizin-7a(5H)-yl)methoxy)pyrido[4,3-d]pyrimidin-7-yl)-5-methoxy-5,6,7,8-tetrahydronaphthalen-2-ol], for which the IC50 was determined as 20 nM.

On to `CCc1cccc2cc(O)cc(-c3ncc4c(N5C[C@H]6CC[C@@H](C5)O6)nc(OC[C@@]56CCCN5C[C@H](F)C6)nc4c3F)c12` [Example 14, 4-(4-((1R,5S)-8-oxa-3-azabicyclo[3.2.1]octan-3-yl)-8-fluoro-2-(((2R,7aS)-2-fluorotetrahydro-1H-pyrrolizin-7a(5H)-yl)methoxy)pyrido[4,3-d]pyrimidin-7-yl)-5-ethylnaphthalen-2-ol], for which the IC50 came out at 330 nM.

On to `C#Cc1cccc2cc(O)cc(-c3ncc4c(C5C[C@H]6CC[C@@H](C5)N6)nc(OC[C@@]56CCCN5C[C@H](F)C6)nc4c3F)c12` (stereo partly drawn) [Example 83, 4-(4-((1R,5S)-8-azabicyclo[3.2.1]octan-3-yl)-8-fluoro-2-(((2R,7aS)-2-fluorotetrahydro-1H-pyrrolizin-7a(5H)-yl)methoxy)pyrido [4,3-d]pyrimidin-7-yl)-5-ethynylnaphthalen-2-ol], for which the IC50 was > 2500 nM.
